This assay addresses T1, P2Y1 receptor (P2Y1R) (Homo sapiens, UniProt P47900).
T1 construct: gene P2RY1; native receptor in T24 and HEK293 cells
Put plainly: agonist-induced intracellular Ca2+ mobilization (FLIPR) in T24 cells. It is filed as cell-based. A general note: Calcium flux is commonly read through the fluorescence of an indicator in the cells.

This passage reports EC50 results from PMC11661376, “A2B adenosine receptor-triggered intracellular calcium mobilization: Cell type-dependent involvement of Gi, Gq, Gs proteins and protein kinase C” (Research Square, 2024).

As usually defined, the EC50 is the concentration needed to bring the measured effect to its halfway point. A lower EC50 goes with an effect from little substance.

T1 sequence (P47900 whole entry): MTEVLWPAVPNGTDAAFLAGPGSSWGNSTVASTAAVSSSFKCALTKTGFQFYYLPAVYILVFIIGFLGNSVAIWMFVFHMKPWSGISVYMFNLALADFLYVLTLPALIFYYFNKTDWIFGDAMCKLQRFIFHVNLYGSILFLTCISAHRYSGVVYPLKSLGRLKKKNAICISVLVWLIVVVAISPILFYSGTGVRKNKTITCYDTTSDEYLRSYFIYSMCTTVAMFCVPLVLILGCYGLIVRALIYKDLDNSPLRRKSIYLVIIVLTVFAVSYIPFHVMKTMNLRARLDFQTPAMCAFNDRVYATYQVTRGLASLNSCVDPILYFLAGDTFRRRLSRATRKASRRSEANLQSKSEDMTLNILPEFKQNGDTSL

The compound `CSc1nc(N)c2ncn([C@H]3[C@H](O)[C@H](O)[C@]4(COP(=O)(O)OP(=O)(O)O)C[C@H]34)c2n1` [MRS2365] displayed an EC50 of 1.38 ± 0.26 nM.
